This note sets out measurements from patent US20100273189A1, “NON SEPARATION ASSAYS WITH SELECTIVE SIGNAL INHIBITORS” (BECKMAN COULTER, INC., priority 2009, published 2010).

Where two headings read alike, the source gives them in different places.

In one test the test system is PSA. Briefly: Screening SSIA by homogeneous PSA immunoassay. Format: biochemical. As to the method: This example presents one method used for testing of candidate compounds for functionality as SSIA in assays of the present disclosure. Testing was conducted in a model screening immunoassay of the protein PSA. Mouse anti-PSA tests were run using a 96-well microtiter plate format. […] The plate was incubated at 37° C. for 10 minutes. A 5 μL aliquot of the test compound (various concentrations) was added to each well. Chemiluminescence was triggered by the addition of 100 μL of a solution of trigger solution A. The chemiluminescent flash was integrated for 5 seconds after the addition of the trigger solution using a Luminoskan Asent® plate luminometer, (Thermo Fischer Scientific, Inc., Waltham, Mass.).
It is desirable that the improvement factor be at least 2 (S5/S0≧ about 20-30) and more desirable that improvement factor be at least 5 (S5/S0≧ about 50), yet more desirable that S5/S0 be ≧100 in the present screen.

The next test addresses T1, biotinylated HRP (Armoracia rusticana, UniProt P00433).
T1 construct: purchased Roche Diagnostics, Indianapolis, Ind., USA
T1 sequence (P00433 31-338 limits assumed): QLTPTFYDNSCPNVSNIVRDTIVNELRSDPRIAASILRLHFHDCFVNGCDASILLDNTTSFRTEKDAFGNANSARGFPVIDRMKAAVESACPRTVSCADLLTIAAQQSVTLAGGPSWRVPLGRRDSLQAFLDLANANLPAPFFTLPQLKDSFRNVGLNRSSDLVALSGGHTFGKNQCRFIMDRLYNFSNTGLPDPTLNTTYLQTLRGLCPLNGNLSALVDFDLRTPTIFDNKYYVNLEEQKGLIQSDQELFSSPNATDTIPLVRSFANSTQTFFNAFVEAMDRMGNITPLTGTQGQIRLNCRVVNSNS
The experiment in a line: Model system for selection of SSIA (M280 btn-BSA-AK1-streptavidin particles + Btn-HRP:HRP). Format: biochemical.

Where [1] appears, read: PSA 129 ng/mL (S5) vs zero, test compound final conc. 122 uM.
[2] abbreviates: PSA 129 ng/mL (S5) vs zero, test compound final conc. 0.122 mM.

Regarding `Cn1ccnc1S`, the S5/S0 in the test with PSA (PSA 129 ng/mL (S5) vs zero, test compound final conc. 36.7 mM) was 102. Regarding `Nc1ncc[nH]1`, the S5/S0 in the test on PSA (PSA 129 ng/mL (S5) vs zero, test compound final conc. 24.4 mM) is on record as 14. With `Nc1ccc2[nH]ncc2c1`, the S5/S0 with PSA (PSA 129 ng/mL (S5) vs zero, test compound final conc. 12.2 mM) is listed as 10. Consider `O[C@@H](CS)[C@@H](O)CS` [DTT], for which, in the test on PSA (PSA 129 ng/mL (S5) vs zero, test compound final conc. 72 uM), the S5/S0 was 20.

`OCCO` [Ethylene glycol] returned an S5/S0 in the test on PSA of 14. For `N[C@@H](CCC(=O)N[C@@H](CS)C(=O)NCC(=O)O)C(=O)O` [Glutathione], in the test with PSA (setting [1]), the S5/S0 amounted to 77. The S/S0 on biotinylated HRP (Btn-HRP 0 ng/mL vs 0, SSIA 100 μM) turned out to be 1. Besides, on biotinylated HRP (Btn-HRP 0 ng/mL, total HRP 500 ng/mL, SSIA final 100 μM), the B-HRP0 light intensity is reported as 26,977. The S1/S0 on biotinylated HRP (Btn-HRP 1 ng/mL vs 0, SSIA 100 μM) is 2.1. Further, the B-HRP1 light intensity at biotinylated HRP (Btn-HRP 1 ng/mL, total HRP 500 ng/mL, SSIA final 100 μM) is 55,719. The S2/S0 on biotinylated HRP (Btn-HRP 10 ng/mL vs 0, SSIA 100 μM) is recorded as 92. Further, the B-HRP10 light intensity on biotinylated HRP (Btn-HRP 10 ng/mL, total HRP 500 ng/mL, SSIA final 100 μM) is 2,480,764. The S3/S0 at biotinylated HRP (Btn-HRP 100 ng/mL vs 0, SSIA 100 μM) was 323.7. Moreover, the B-HRP100 light intensity on biotinylated HRP (Btn-HRP 100 ng/mL, total HRP 500 ng/mL, SSIA final 100 μM) was 8,733,068. Further, the S4/S0 at biotinylated HRP (Btn-HRP 250 ng/mL vs 0, SSIA 100 μM) came out at 369.4. Also, on biotinylated HRP (Btn-HRP 250 ng/mL, total HRP 500 ng/mL, SSIA final 100 μM), the B-HRP250 light intensity is 9,965,235. Moreover, on biotinylated HRP (SSIA 100 μM, conclusion in words), the “effect in the model system / utility as SSIA” value is listed as “no effect”. In the test on PSA (setting [1]), `N[C@@H](CS)C(=O)O` [L-Cysteine] yielded an S5/S0 of 22. With `NN` [NH2NH2], the S5/S0 in the test on PSA (PSA 129 ng/mL (S5) vs zero, test compound final conc. 244 uM) was found to be 15. Compound `O=S([O-])[O-].[Na+].[Na+]` [Na2SO3] registered an S5/S0 with PSA (PSA 129 ng/mL (S5) vs zero, test compound final conc. 15 uM) of 59.

As for `[N-]=[N+]=[N-].[Na+]` [NaN3], in the test on PSA (PSA 129 ng/mL (S5) vs zero, test compound final conc. 34 uM), the S5/S0 is 19. In the test with PSA (PSA 129 ng/mL (S5) vs zero, test compound final conc. 61 uM), `Cc1cc(-c2cc(C)c(N)c(C)c2)cc(C)c1N` [TMB] gave an S5/S0 of 20.

Regarding `O=C1O[C@H]([C@@H](O)CO)C([O-])=C1O.[Na+]` [ascorbate sodium salt (ascorbate anion), ascorbate sodium salt], in the test on PSA (setting [2]), the S5/S0 was 495.

For `Nc1ccccc1O` [drawing 47], in the test on PSA (setting [2]), the S5/S0 was 649. In the test on PSA (setting [1]), `O=C1O[C@H]([C@@H](O)CO)C(O)=C1O` [drawing 64] displayed an S5/S0 of 10.3. On to `O=C1O[C@H]([C@@H](O)CO)C(O)=C1O` [drawing 72], for which the S5/S0 in the test with PSA (setting [2]) is listed as 423. On to `Oc1ccc(O)c(Cl)c1` [drawing 75], for which the S5/S0 in the test with PSA (PSA 129 ng/mL (S5) vs zero, test compound final conc. 0.111 mM) was found to be 229. `Oc1ccc(Cl)cc1O` [drawing 77]: the S5/S0 in the test on PSA (PSA 129 ng/mL (S5) vs zero, test compound final conc. 0.244 mM) is given as 409. For `Nc1ccc(C(=O)O)cc1O` [drawing 79], the S5/S0 in the test on PSA (setting [2]) was found to be 153.
